Experimental data: US12065436B2, “Cardiac sarcomere inhibitors” (Cytokinetics, Inc., priority 2018, dated 2024)

Molecular target: bovine cardiac myofibrils (full-length cardiac myosin ATPase in the native sarcomere) (Bos taurus (Bovine), UniProt Q9BE39)
Assay: Skinned bovine cardiac myofibril ATPase assay (PK/LDH-coupled)
Format: biochemical
Details: Ca2+ activating to 75% of maximal rate; for CDMF75 IC15: concentration giving 15% inhibition; for IC50: read-out: CDMF75 IC50
Outline: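 Inhibition of steady-state ATPase read at 340 nm through a PK/LDH-coupled NADH system (0.5 mM NADH, 1.5 mM PEP). Detergent-skinned bovine cardiac myofibrils, 1 mg/mL, were tested at pH 6.8 in PIPES/MgCl2 with 50 μM ATP and calcium adjusted to give pCa50 or pCa75 activation.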

bovine cardiac myofibrils (full-length cardiac myosin ATPase in the native sarcomere), sequence (Q9BE39 whole entry): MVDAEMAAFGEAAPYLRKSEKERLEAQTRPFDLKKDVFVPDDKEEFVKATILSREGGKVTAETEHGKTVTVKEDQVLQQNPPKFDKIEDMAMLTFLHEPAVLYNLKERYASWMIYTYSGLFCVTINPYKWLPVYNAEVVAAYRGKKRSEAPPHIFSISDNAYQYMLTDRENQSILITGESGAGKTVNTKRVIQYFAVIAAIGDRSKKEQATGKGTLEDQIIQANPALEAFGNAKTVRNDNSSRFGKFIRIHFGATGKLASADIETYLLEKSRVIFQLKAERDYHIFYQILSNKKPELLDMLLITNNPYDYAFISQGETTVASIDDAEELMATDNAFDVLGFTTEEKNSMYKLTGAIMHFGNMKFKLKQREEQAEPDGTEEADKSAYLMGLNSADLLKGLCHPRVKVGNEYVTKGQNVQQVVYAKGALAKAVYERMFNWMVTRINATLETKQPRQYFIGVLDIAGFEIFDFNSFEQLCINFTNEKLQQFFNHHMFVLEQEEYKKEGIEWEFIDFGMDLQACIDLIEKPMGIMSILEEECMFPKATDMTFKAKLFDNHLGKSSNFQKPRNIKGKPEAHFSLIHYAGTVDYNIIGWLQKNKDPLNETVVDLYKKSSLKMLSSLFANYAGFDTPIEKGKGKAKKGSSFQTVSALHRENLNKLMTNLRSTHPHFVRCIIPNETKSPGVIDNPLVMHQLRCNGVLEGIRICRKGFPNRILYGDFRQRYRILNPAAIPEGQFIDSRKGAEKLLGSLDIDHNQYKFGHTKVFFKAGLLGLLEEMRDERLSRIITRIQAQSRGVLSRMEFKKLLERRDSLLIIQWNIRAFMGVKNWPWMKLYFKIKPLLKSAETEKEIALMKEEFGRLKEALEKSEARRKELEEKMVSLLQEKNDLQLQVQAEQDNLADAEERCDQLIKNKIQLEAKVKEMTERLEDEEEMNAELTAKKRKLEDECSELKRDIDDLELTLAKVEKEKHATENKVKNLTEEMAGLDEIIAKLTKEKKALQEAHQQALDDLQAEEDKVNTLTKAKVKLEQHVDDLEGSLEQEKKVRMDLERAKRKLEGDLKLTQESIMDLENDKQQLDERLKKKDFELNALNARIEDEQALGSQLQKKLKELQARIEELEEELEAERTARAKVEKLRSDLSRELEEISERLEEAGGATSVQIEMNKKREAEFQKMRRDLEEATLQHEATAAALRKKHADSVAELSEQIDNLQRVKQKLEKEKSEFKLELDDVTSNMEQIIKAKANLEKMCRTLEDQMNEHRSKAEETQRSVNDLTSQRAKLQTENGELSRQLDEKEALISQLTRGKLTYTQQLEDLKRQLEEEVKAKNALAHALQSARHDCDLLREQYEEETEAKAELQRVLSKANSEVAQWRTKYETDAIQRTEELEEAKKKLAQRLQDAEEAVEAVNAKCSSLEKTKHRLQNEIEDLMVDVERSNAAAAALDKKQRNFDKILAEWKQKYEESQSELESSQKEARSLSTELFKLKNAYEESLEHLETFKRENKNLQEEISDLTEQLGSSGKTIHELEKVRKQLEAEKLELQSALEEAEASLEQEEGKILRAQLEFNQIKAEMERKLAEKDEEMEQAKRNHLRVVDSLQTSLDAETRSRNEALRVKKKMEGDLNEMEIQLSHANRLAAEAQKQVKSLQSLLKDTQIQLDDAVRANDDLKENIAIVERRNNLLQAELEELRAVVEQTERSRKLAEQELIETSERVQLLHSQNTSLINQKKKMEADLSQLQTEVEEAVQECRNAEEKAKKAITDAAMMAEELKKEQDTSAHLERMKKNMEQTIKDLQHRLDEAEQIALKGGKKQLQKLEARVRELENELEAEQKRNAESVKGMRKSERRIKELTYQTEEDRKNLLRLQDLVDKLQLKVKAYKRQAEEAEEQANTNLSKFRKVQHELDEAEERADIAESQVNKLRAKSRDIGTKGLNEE
bovine cardiac myofibrils (full-length cardiac myosin ATPase in the native sarcomere), sequence (P85100 whole entry partner): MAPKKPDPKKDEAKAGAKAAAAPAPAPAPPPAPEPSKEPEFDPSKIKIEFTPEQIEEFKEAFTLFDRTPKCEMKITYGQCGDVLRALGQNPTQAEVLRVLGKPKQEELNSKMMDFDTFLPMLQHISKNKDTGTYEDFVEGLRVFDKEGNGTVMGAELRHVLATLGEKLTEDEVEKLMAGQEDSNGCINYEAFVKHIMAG
bovine cardiac myofibrils (full-length cardiac myosin ATPase in the native sarcomere), sequence (Q3SZE5 whole entry partner): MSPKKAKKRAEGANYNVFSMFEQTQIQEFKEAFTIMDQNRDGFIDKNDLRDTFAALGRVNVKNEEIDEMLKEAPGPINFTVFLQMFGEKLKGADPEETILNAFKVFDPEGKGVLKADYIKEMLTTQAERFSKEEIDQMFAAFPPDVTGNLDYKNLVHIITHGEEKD

## CCc1nc(-c2ccc3c(c2)CCC[C@H]3NC(=O)c2ccnn2C)no1 [Compound 526, (R)-N-(6-(5-ethyl-1,2,4-oxadiazol-3-yl)-1,2,3,4-tetrahydronaphthalen-1-yl)-1-methyl-1H-pyrazole-5-carboxamide]
  CDMF75 IC15: 0.4 µM
  IC50: 1.3 µM

## C=Cn1cc(C(=O)N[C@@H]2CCc3cc(-c4noc(CC)n4)ccc32)cn1 [Compound 527, (R)-N-(5-(5-ethyl-1,2,4-oxadiazol-3-yl)-2,3-dihydro-1H-inden-1-yl)-1-vinyl-1H-pyrazole-4-carboxamide]
  CDMF75 IC15: 0.3 µM
  IC50: 1.1 µM

## O=C(N[C@@H]1CCc2cc(-c3noc(C(F)F)n3)ccc21)c1cnn(CCO)c1 [Compound 528, (R)-N-(5-(5-(difluoromethyl)-1,2,4-oxadiazol-3-yl)-2,3-dihydro-1H-inden-1-yl)-1-(2-hydroxyethyl)-1H-pyrazole-4-carboxamide]
  CDMF75 IC15: 1.1 µM
  IC50: 4.9 µM

## COCCn1cc(C(=O)N[C@@H]2CCc3cc(-c4noc(C(F)F)n4)ccc32)cn1 [Compound 529, (R)-N-(5-(5-(difluoromethyl)-1,2,4-oxadiazol-3-yl)-2,3-dihydro-1H-inden-1-yl)-1-(2-methoxyethyl)-1H-pyrazole-4-carboxamide]
  CDMF75 IC15: 1.8 µM
  IC50: 6.8 µM

## CCc1nc(-c2ccc3c(c2)CC[C@H]3NC(=O)c2cnn(CC(OC)OC)c2)no1 [Compound 530, (R)-1-(2,2-dimethoxyethyl)-N-(5-(5-ethyl-1,2,4-oxadiazol-3-yl)-2,3-dihydro-1H-inden-1-yl)-1H-pyrazole-4-carboxamide]
  CDMF75 IC15: 2.6 µM
  IC50: 8.9 µM

## CCc1nc(-c2ccc3c(c2)CC[C@H]3NC(=O)c2cnn(C(C)C(=O)O)c2)no1 (stereo partly drawn) [Compound 531, 2-(4-(((R)-5-(5-ethyl-1,2,4-oxadiazol-3-yl)-2,3-dihydro-1H-inden-1-yl)carbamoyl)-1H-pyrazol-1-yl)propanoic acid]
  CDMF75 IC15: 4.1 µM
  IC50: 25.1 µM

## CCc1nc(-c2ccc3c(c2)CC[C@H]3NC(=O)c2cnn(CC(=O)O)c2)no1 [Compound 532, (R)-2-(4-((5-(5-ethyl-1,2,4-oxadiazol-3-yl)-2,3-dihydro-1H-inden-1-yl)carbamoyl)-1H-pyrazol-1-yl)acetic acid]
  CDMF75 IC15: 1.1 µM
  IC50: 5.5 µM

## CCc1nc(-c2ccc3c(c2)CC[C@H]3NC(=O)c2cnn(C(C)CO)c2)no1 (stereo partly drawn) [Compound 533, N-((R)-5-(5-ethyl-1,2,4-oxadiazol-3-yl)-2,3-dihydro-1H-inden-1-yl)-1-(1-hydroxypropan-2-yl)-1H-pyrazole-4-carboxamide]
  CDMF75 IC15: 1.5 µM
  IC50: 8.7 µM

## CCc1nc(-c2ccc3c(c2)OCCC3NC(=O)c2cnn(C)c2)no1 (centres unmarked) [Compound 534, N-(7-(5-ethyl-1,2,4-oxadiazol-3-yl)chroman-4-yl)-1-methyl-1H-pyrazole-4-carboxamide]
  CDMF75 IC15: 2.2 µM
  IC50: 13.5 µM

## CCc1nc(-c2ccc3c(c2)OCC[C@H]3NC(=O)c2cnn(C)c2)no1 [Compound 535, (R)-N-(7-(5-ethyl-1,2,4-oxadiazol-3-yl)chroman-4-yl)-1-methyl-1H-pyrazole-4-carboxamide]
  CDMF75 IC15: 1.0 µM
  IC50: 5.8 µM

## CCc1nc(-c2ccc3c(c2)OCCC3NC(=O)c2ccnn2C)no1 (centres unmarked) [Compound 536, N-(7-(5-ethyl-1,2,4-oxadiazol-3-yl)chroman-4-yl)-1-methyl-1H-pyrazole-5-carboxamide]
  CDMF75 IC15: 1.1 µM
  IC50: 3.5 µM

## CCc1nc(-c2ccc3c(c2)OCC[C@H]3NC(=O)c2ccnn2C)no1 [Compound 537, (R)-N-(7-(5-ethyl-1,2,4-oxadiazol-3-yl)chroman-4-yl)-1-methyl-1H-pyrazole-5-carboxamide]
  CDMF75 IC15: 0.4 µM
  IC50: 1.8 µM

## CCc1nc(-c2ccc3c(c2)CC[C@H]3NC(=O)c2cnn(C[C@@H](O)CO)c2)no1 [Compound 539, N-[(1R)-5-(5-ethyl(1,2,4-oxadiazol-3-yl))indanyl][1-((2R)-2,3-dihydroxypropyl)pyrazol-4-yl]carboxamide]
  CDMF75 IC15: 1.3 µM
  IC50: 6 µM

## CCc1nc(-c2ccc3c(c2)CC[C@H]3NC(=O)c2cnn(C[C@H](O)CO)c2)no1 [Compound 540, N-[(1R)-5-(5-ethyl(1,2,4-oxadiazol-3-yl))indanyl][1-((2S)-2,3-dihydroxypropyl)pyrazol-4-yl]carboxamide]
  CDMF75 IC15: 0.7 µM
  IC50: 2.9 µM

## CCc1nc(-c2ccc3c(c2)CC[C@H]3NC(=O)c2cnn(C[C@H](C)O)c2)no1 [Compound 541, N-[(1R)-5-(5-ethyl(1,2,4-oxadiazol-3-yl))indanyl][1-((2S)-2-hydroxypropyl)pyrazol-4-yl]carboxamide]
  CDMF75 IC15: 1.2 µM
  IC50: 5.2 µM

## CC(=O)O[C@@H](C)c1nc(-c2ccc3c(c2)CC[C@H]3NC(=O)c2cnn(C)c2)no1 [Compound 543, 1-(3-{(1R)-1-[(1-methylpyrazol-4-yl)carbonylamino]indan-5-yl}(1,2,4-oxadiazol-5-yl))(1S)ethyl acetate]
  CDMF75 IC15: 4.6 µM
  IC50: 17.3 µM

## COC(=O)Cc1nc(-c2ccc3c(c2)CC[C@H]3NC(=O)c2cnn(C)c2)no1 [Compound 544, methyl 2-(3-{(1R)-1-[(1-methylpyrazol-4-yl)carbonylamino]indan-5-yl}-1,2,4-oxadiazol-5-yl)acetate]
  CDMF75 IC15: 34.9 µM
  IC50: 39.2 µM

## CC(=O)c1nc(-c2ccc3c(c2)CC[C@H]3NC(=O)c2cnn(C)c2)no1 [Compound 545, N-[(1R)-5-(5-acetyl(1,2,4-oxadiazol-3-yl))indanyl](1-methylpyrazol-4-yl)carboxamide]
  CDMF75 IC15: 3.2 µM
  IC50: 13.1 µM

## COCCc1nc(-c2ccc3c(c2)CC[C@H]3NC(=O)c2cnn(C)c2)no1 [Compound 546, N-{(1R)-5-[5-(2-methoxyethyl)(1,2,4-oxadiazol-3-yl)]indanyl}(1-methylpyrazol-4-yl)carboxamide]
  CDMF75 IC15: 15.5 µM
  IC50: 39.2 µM

## C=Cc1nc(-c2ccc3c(c2)CC[C@H]3NC(=O)c2cnn(C)c2)no1 [Compound 547, N-[(1R)-5-(5-vinyl(1,2,4-oxadiazol-3-yl))indanyl](1-methylpyrazol-4-yl)carboxamide]
  CDMF75 IC15: 0.4 µM
  IC50: 1.5 µM

## CC(=O)OCCc1nc(-c2ccc3c(c2)CC[C@H]3NC(=O)c2cnn(C)c2)no1 [Compound 548, 2-(3-{(1R)-1-[(1-methylpyrazol-4-yl)carbonylamino]indan-5-yl}-1,2,4-oxadiazol-5-yl)ethyl acetate]
  CDMF75 IC15: 11.8 µM
  IC50: 39.2 µM

## C[C@@H](O)c1nc(-c2ccc3c(c2)CC[C@H]3NC(=O)c2cnn(C)c2)no1 [Compound 550, N-{(1R)-5-[5-((1R)-1-hydroxyethyl)(1,2,4-oxadiazol-3-yl)]indanyl}(1-methylpyrazol-4-yl)carboxamide]
  CDMF75 IC15: 13.1 µM
  IC50: 39.2 µM

## COC(C)c1nc(-c2ccc3c(c2)CC[C@H]3NC(=O)c2cnn(C)c2)no1 (stereo partly drawn) [Compound 551, N-((1R)-5-(5-(1-methoxyethyl)-1,2,4-oxadiazol-3-yl)-2,3-dihydro-1H-inden-1-yl)-1-methyl-1H-pyrazole-4-carboxamide]
  CDMF75 IC15: 3.6 µM
  IC50: 14.6 µM

## Cn1cc(C(=O)N[C@@H]2CCc3cc(-c4noc(CCO)n4)ccc32)cn1 [Compound 552, N-{(1R)-5-[5-(2-hydroxyethyl)(1,2,4-oxadiazol-3-yl)]indanyl}(1-methylpyrazol-4-yl)carboxamide]
  CDMF75 IC15: 13.7 µM
  IC50: 39.2 µM

## CCc1nc(-c2ccc3c(c2)CC[C@H]3NC(=O)c2cnn(CC(O)CO)c2)no1 (stereo partly drawn) [Compound 553, N-{(1R)-5-(5-ethyl(1,2,4-oxadiazol-3-yl))indanyl][1-(2,3-dihydroxypropyl)pyrazol-4-yl]carboxamide]
  CDMF75 IC15: 1.2 µM
  IC50: 5.1 µM

## CCc1nc(-c2cc(F)c3c(c2)CC[C@H]3NC(=O)c2cnn(C)c2)no1 [Compound 554, (R)-N-(5-(5-ethyl-1,2,4-oxadiazol-3-yl)-7-fluoro-2,3-dihydro-1H-inden-1-yl)-1-methyl-1H-pyrazole-4-carboxamide]
  CDMF75 IC15: 0.4 µM
  IC50: 1.5 µM

## CCOC(=O)c1cc(C(=O)N[C@@H]2CCc3cc(-c4noc(CC)n4)ccc32)ccn1 [Compound 555, Ethyl (R)-4-((5-(5-ethyl-1,2,4-oxadiazol-3-yl)-2,3-dihydro-1H-inden-1-yl)carbamoyl)picolinate]
  CDMF75 IC15: 1.0 µM
  IC50: 3.5 µM

## CCc1nc(-c2ccc3c(c2)CC[C@H]3NC(=O)c2cc(C)ncc2F)no1 [Compound 556, (R)-N-(5-(5-ethyl-1,2,4-oxadiazol-3-yl)-2,3-dihydro-1H-inden-1-yl)-5-fluoro-2-methylisonicotinamide]
  CDMF75 IC15: 1.4 µM
  IC50: 7.6 µM

## CCc1nc(-c2ccc3c(c2)CC[C@H]3NC(=O)c2ccnc(OC)c2)no1 [Compound 557, (R)-N-(5-(5-ethyl-1,2,4-oxadiazol-3-yl)-2,3-dihydro-1H-inden-1-yl)-2-methoxyisonicotinamide]
  CDMF75 IC15: 0.4 µM
  IC50: 1.4 µM

## CCc1nc(-c2ccc3c(c2)CC[C@H]3NC(=O)c2ccn(C)c(=O)c2)no1 [Compound 558, (R)-N-(5-(5-ethyl-1,2,4-oxadiazol-3-yl)-2,3-dihydro-1H-inden-1-yl)-1-methyl-2-oxo-1,2-dihydropyridine-4-carboxamide]
  CDMF75 IC15: 2.0 µM
  IC50: 8.3 µM

## CCc1nc(-c2ccc3c(c2)CC[C@H]3NC(=O)c2ccn(CCO)c(=O)c2)no1 [Compound 559, (R)-N-(5-(5-ethyl-1,2,4-oxadiazol-3-yl)-2,3-dihydro-1H-inden-1-yl)-1-(2-hydroxyethyl)-2-oxo-1,2-dihydropyridine-4-carboxamide]
  CDMF75 IC15: 1.4 µM
  IC50: 5.7 µM
